From US9242984B2, “Pyrazolyl derivatives as Syk inhibitors” (Merck Sharp & Dohme Corp., priority 2012, dated 2016) come the findings set out here.

This experiment deals with T1, recombinant human Syk (GST-hSyk fusion protein) (Homo sapiens, UniProt P43405).
T1 construct: purchased Carna Biosciences 08-176
Nature of the experiment: Homogeneous Time-Resolved Fluorescence (HTRF) assay for the recombinant human Syk enzyme. In kind it is biochemical. As to conditions: IC50 class; 10-dose titration, 25 μM ATP; read-out: rhSYK Activity. The procedure, abridged: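 IC50 came from a four-parameter fit over ten doses, 10 μM to 0.508 nM, with HTRF read-out (Eu-anti-pTyr antibody, SA-APC, EDTA stop, 30 min). The enzyme, 5 pM GST-hSyk, met compound for 10 min, then phosphorylated 250 nM biotin-peptide with 25 μM ATP and 5 mM Mg for 45 min at room temperature, pH 7.5.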
A general note: In TR-FRET formats the signal depends on donor and acceptor labels being close together.
As for `Cc1cc(Nc2nccc(C(F)F)n2)cc(-c2cnn(C[C@H]3CNCCO3)c2)c1` [Example 2.84, 4-(difluoromethyl)-N-(3-methyl-5-{1-[(2R)-morpholin-2-ylmethyl]-1H-pyrazol-4-yl}phenyl)pyrimidin-2-amine], the IC50 is ≤ 100 nM.

For the molecule `Cc1cc(Nc2nccc(C(F)F)n2)cc(-c2cnn(CC(C)(C)N)c2)c1` [Example 2.85, N-{3-[1-(2-amino-2-methylpropyl)-1H-pyrazol-4-yl]-5-methylphenyl}-4-(difluoromethyl)pyrimidin-2-amine], the IC50 is ≤ 100 nM.

As for `C[C@@](O)(CO)Cn1cc(-c2cccc(Nc3nccc(C(F)(F)F)n3)c2)cn1` [Example 2.86, (2S)-2-methyl-3-[4-(3-{[4-(trifluoromethyl)pyrimidin-2-yl]amino}phenyl)-1H-pyrazol-1-yl]propane-1,2-diol], the IC50 is ≤ 100 nM.

For `Cc1cc(Nc2nccc(C(C)O)n2)cc(-c2cnn(C[C@](C)(O)CO)c2)c1` (stereo partly drawn) [Example 2.87, (2S)-3-[4-(3-{[4-(1-hydroxyethyl)pyrimidin-2-yl]amino}-5-methylphenyl)-1H-pyrazol-1-yl]-2-methylpropane-1,2-diol], the IC50 was ≤ 100 nM.

Take `COc1ccnc(Nc2cc(C)cc(-c3cnn(C[C@](C)(O)CO)c3)c2)n1` [Example 2.88, (2S)-3-(4-{3-[(4-methoxypyrimidin-2-yl)amino]-5-methylphenyl}-1H-pyrazol-1-yl)-2-methylpropane-1,2-diol]: the IC50 was ≤ 100 nM.

Turning to `COc1nc(Nc2cc(C)cc(-c3cnn(C[C@](C)(O)CO)c3)c2)ncc1F` [Example 2.89, (2S)-3-(4-{3-[(5-fluoro-4-methoxypyrimidin-2-yl)amino]-5-methylphenyl}-1H-pyrazol-1-yl)-2-methylpropane-1,2-diol], the IC50 was ≤ 100 nM.

In the case of `Cc1cc(Nc2nccc(C3CC3)n2)cc(-c2cnn(C[C@](C)(O)CO)c2)c1` [Example 2.90, (2S)-3-(4-{3-[(4-cyclopropylpyrimidin-2-yl)amino]-5-methylphenyl}-1H-pyrazol-1-yl)-2-methylpropane-1,2-diol], the IC50 was ≤ 100 nM.

On to `C[C@@](O)(CO)Cn1cc(-c2cc(F)cc(Nc3nccc(C(F)(F)F)n3)c2)cn1` [Example 2.91, (2S)-3-[4-(3-fluoro-5-{[4-(trifluoromethyl)pyrimidin-2-yl]amino}phenyl)-1H-pyrazol-1-yl]-2-methylpropane-1,2-diol], for which the IC50 was ≤ 100 nM.

On to `C[C@@](O)(CO)Cn1cc(-c2cccc(Nc3nccc(C(F)F)n3)c2)cn1` [Example 2.92, (2S)-3-[4-(3-{[4-(difluoromethyl)pyrimidin-2-yl]amino}phenyl)-1H-pyrazol-1-yl]-2-methylpropane-1,2-diol], for which the IC50 is ≤ 100 nM.

For `CC(O)c1ccnc(Nc2cccc(-c3cnn(C[C@](C)(O)CO)c3)c2)n1` (stereo partly drawn) [Example 2.93, (2S)-3-[4-(3-{[4-(1-hydroxyethyl)pyrimidin-2-yl]amino}phenyl)-1H-pyrazol-1-yl]-2-methylpropane-1,2-diol], the IC50 is ≤ 100 nM.

Consider `Cc1cc(Nc2ncc(F)c(C)n2)cc(-c2cnn(C[C@](C)(O)CO)c2)c1` [Example 2.94, (2S)-3-(4-{3-[(5-fluoro-4-methylpyrimidin-2-yl)amino]-5-methylphenyl}-1H-pyrazol-1-yl)-2-methylpropane-1,2-diol], for which the IC50 is ≤ 100 nM.

On to `Cc1ccnc(Nc2cccc(-c3cnn(C[C@](C)(O)CO)c3)c2)n1` [Example 2.95, (2S)-2-methyl-3-(4-{3-[(4-methylpyrimidin-2-yl)amino]phenyl}-1H-pyrazol-1-yl)propane-1,2-diol], for which the IC50 fell in the range of 100 to 1000 nM.

Regarding `Cc1cc(Nc2nccc(OC(C)C)n2)cc(-c2cnn(C[C@](C)(O)CO)c2)c1` [Example 2.96, (2S)-2-methyl-3-[4-(3-methyl-5-{[4-(1-methylethoxy)pyrimidin-2-yl]amino}phenyl)-1H-pyrazol-1-yl]propane-1,2-diol], the IC50 is ≤ 100 nM.

Regarding `Cc1cc(Nc2ncc(Cl)c(C)n2)cc(-c2cnn(C[C@](C)(O)CO)c2)c1` [Example 2.97, (2S)-3-(4-{3-[(5-chloro-4-methylpyrimidin-2-yl)amino]-5-methylphenyl}-1H-pyrazol-1-yl)-2-methylpropane-1,2-diol], the IC50 is ≤ 100 nM.

Take `COc1nc(Nc2cc(C)cc(-c3cnn(C[C@](C)(O)CO)c3)c2)ncc1Cl` [Example 2.98, (2S)-3-(4-{3-[(5-chloro-4-methoxypyrimidin-2-yl)amino]-5-methylphenyl}-1H-pyrazol-1-yl)-2-methylpropane-1,2-diol]: the IC50 is ≤ 100 nM.

As to `Cc1cc(Nc2nccc(C(F)(F)F)n2)cc(-c2cnn(C[C@H](O)CC#N)c2)c1` [Example 3.2, (3R)-3-hydroxy-4-[4-(3-methyl-5-{[4-(trifluoromethyl)-pyrimidin-2-yl]amino}phenyl)-1H-pyrazol-1-yl]-butanenitrile], the IC50 is ≤ 100 nM.

Take `Cc1cc(Nc2nccc(C(F)(F)F)n2)cc(-c2cnn(CCC(N)=O)c2)c1` [Example 3.3]: the IC50 was ≤ 100 nM.

`Cc1cc(Nc2nccc(C(F)(F)F)n2)cc(-c2cnn(C[C@@H](C)CO)c2)c1` [Example 3.4, (2r)-2-methyl-3-[4-(3-methyl-5-{[4-(trifluoromethyl)-pyrimidin-2-yl]-amino}phenyl)-1H-pyrazol-1-yl]-propan-1-ol]: the IC50 is ≤ 100 nM.

As to `Cc1cc(Nc2nccc(C(F)(F)F)n2)cc(-c2cnn(C[C@H](C)CO)c2)c1` [Example 3.5, (2s)-2-methyl-3-[4-(3-methyl-5-{[4-(trifluoromethyl)-pyrimidin-2-yl]amino}-phenyl)-1H-pyrazol-1-yl]-propan-1-ol], the IC50 is ≤ 100 nM.

`Cc1cc(Nc2nccc(C(F)(F)F)n2)cc(-c2cnn(CCCN3CCNC3=O)c2)c1` [Example 3.6, 1-{3-[4-(3-methyl-5-{[4-(trifluoro-methyl)pyrimidin-2-yl]amino}-phenyl)-1H-pyrazol-1-yl]-propyl}imidazolidin-2-one]: the IC50 was ≤ 100 nM.

As for `CC(=O)N1CCN(C(=O)Cn2cc(-c3cc(C)cc(Nc4nccc(C(F)(F)F)n4)c3)cn2)CC1` [Example 3.7, N-(3-{1-[2-(4-acetylpiperazin-1-yl)-2-oxoethyl]-1H-pyrazol-4-yl}-5-methylphenyl)-4-(trifluoromethyl)-pyrimidin-2-amine], the IC50 was ≤ 100 nM.

Turning to `Cc1cc(Nc2nccc(C(F)(F)F)n2)cc(-c2cnn(CC(=O)NC(C)(C)C)c2)c1` [Example 3.8, N-tert-butyl-2-[4-(3-methyl-5-{[4-(trifluoromethyl)pyrimidin-2-yl]amino}-phenyl)-1H-pyrazol-1-yl]acetamide], the IC50 was ≤ 100 nM.

As to `Cc1cc(Nc2nccc(C(F)(F)F)n2)cc(-c2cnn(CC3COCCO3)c2)c1` (stereo not drawn) [Example 3.9, N-{3-[1-(1,4-dioxan-2-ylmethyl)-1H-pyrazol-4-yl]-5-methyl-phenyl}-4-(trifluoro-methyl)pyrimidin-2-amine], the IC50 was ≤ 100 nM.

Consider `Cc1cc(Nc2nccc(C(F)(F)F)n2)cc(-c2cnn(Cc3noc(C)n3)c2)c1` [Example 3.10, N-(3-methyl-5-{1-[(5-methyl-1,2,4-oxadiazol-3-yl)methyl]-1H-pyrazol-4-yl}phenyl)-4-(trifluoromethyl)-pyrimidin-2-amine], for which the IC50 is ≤ 100 nM.

Regarding `Cc1cc(Nc2nccc(C(F)(F)F)n2)cc(-c2cnn(CC(=O)N3COCC3(C)C)c2)c1` [Example 3.11, N-(3-{1-[2-(4,4-dimethyl-1,3-oxazolidin-3-yl)-2-oxoethyl]-1H-pyrazol-4-yl}-5-methylphenyl)-4-(trifluoromethyl)pyrimidin-2-amine], the IC50 was ≤ 100 nM.

In the case of `COCC(C)(C)NC(=O)Cn1cc(-c2cc(C)cc(Nc3nccc(C(F)(F)F)n3)c2)cn1` [Example 3.12, N-(2-methoxy-1,1-dimethylethyl)-2-[4-(3-methyl-5-{[4-(trifluoromethyl)pyrimidin-2-yl]amino}phenyl)-1H-pyrazol-1-yl]acetamide], the IC50 lay in the range of 100 to 1000 nM.

`Cc1cc(Nc2nccc(C(F)(F)F)n2)cc(-c2cnn(CC(=O)N3CCOCC3(C)C)c2)c1` [Example 3.13, N-(3-{1-[2-(3,3-dimethylmorpholin-4-yl)-2-oxoethyl]-1H-pyrazol-4-yl}-5-methylphenyl)-4-(trifluoromethyl)pyrimidin-2-amine]: the IC50 was 100 to 1000 nM.

`Cc1cc(Nc2nccc(C(F)(F)F)n2)cc(-c2cnn(CC(=O)N3[C@H](C)COC[C@@H]3C)c2)c1` [Example 3.14, N-[3-(1-{2-[(3r,5s)-3,5-dimethyl-morpholin-4-yl]-2-oxoethyl}-1H-pyrazol-4-yl)-5-methylphenyl]-4-(trifluoromethyl)-pyrimidin-2-amine]: the IC50 was in the range of 100 to 1000 nM.

With `Cc1cc(Nc2nccc(C(F)(F)F)n2)cc(-c2cnn(CC(=O)N3[C@H](C)COC[C@H]3C)c2)c1` [Example 3.15, N-[3-(1-{2-[(3r,5r)-3,5-dimethylmorpholin-4-yl]-2-oxoethyl}-1H-pyrazol-4-yl)-5-methylphenyl]-4-(trifluoromethyl)-pyrimidin-2-amine], the IC50 is ≤ 100 nM.

For `Cc1cc(Nc2nccc(C(F)(F)F)n2)cc(-c2cnn(CCNC(N)=O)c2)c1` [Example 3.16, 1-{2-[4-(3-methyl-5-{[4-(trifluoromethyl)-pyrimidin-2-yl]-amino}phenyl)-1H-pyrazol-1-yl]ethyl}urea], the IC50 was ≤ 100 nM.

As for `Cc1cc(Nc2nccc(C(F)(F)F)n2)cc(-c2cnn(C3CCOC3=O)c2)c1` (stereo not drawn) [Example 3.17, 3-[4-(3-methyl-5-{[4-(trifluoromethyl)pyrimidin-2-yl]amino}-phenyl)-1H-pyrazol-1-yl]dihydrofuran-2(3h)-one], the IC50 was ≤ 100 nM.

For the molecule `Cc1cc(Nc2nccc(C(F)(F)F)n2)cc(-c2cnn(CC3CCO3)c2)c1` (stereo not drawn) [Example 3.18, N-{3-methyl-5-[1-(oxetan-2-ylmethyl)-1H-pyrazol-4-yl]-phenyl}-4-(trifluoro-methyl)-pyrimidin-2-amine], the IC50 was ≤ 100 nM.

Take `Cc1cc(Nc2nccc(C(F)(F)F)n2)cc(-c2cnn(CCOCCO)c2)c1` [Example 3.19]: the IC50 was ≤ 100 nM.
